# Measured values from patent US5407927A, “Treatment of mild depression and restoration of IGF-I levels in aging by dehydroepiandrosterone” (The Regents of the University of California, priority 1993, dated 1995).
# Like-named read-outs stand apart in the source and are kept apart here.
# Experiments:
# Format in all cases: in vivo, human
# [1] = tested on: testosterone, androstenedione, and dihydrotestosterone; assay: Serum androgen levels during oral DHEA (immunoassay); details: 50 mg DHEA orally, nightly
# Description: (§1) FIG. 2: Hormonal levels during DHEA (50 mg) therapy (represented by stippled area) in men and women. ADIONE (androstenedione); TEST (testosterone); DHT(dihydrotestosterone); SHBG(sex-hormone binding globulin). The shaded area represents the duration of DHEA treatment.
# (§2) Seventeen women and 13 men ages 40-70 in good medical health were enrolled in a clinical trial of DHEA replacement of 6 months duration. The trial was structured as a double-blind randomized placebo-controlled crossover study. […] These subjects were seen monthly and received 50 mg DHEA orally, nightly for 3 months and placebo for 3 months.
# (§3) Blood specimens were drawn from all subjects in the study at baseline (time 0) and at 2 weeks and 12 weeks after DHEA administration, and at 2 weeks after DHEA administration was discontinued. DHEA, DHEAS, androstenedione, testosterone, dihydrotestosterone, and the sex hormone binding globulin were all measured by immunoassay as described by Anderson, D.C., et al. Steroid, 1976, 28:179.
# (§4) Serum levels of testosterone, androstenedione, and dihydrotestosterone, as well as the sex-hormone binding globulin are shown in FIG. 2.
# [2] = tested on: insulin-like growth factor binding protein I (IGF BP-I); assay: Serum insulin-like growth factor binding protein I (immunoassay); details: DHEA 50 mg, 3 months
# Description: (§5) Blood specimens are drawn from patients immediately prior to the onset of DHEA administration and preferentially at 30 days after the beginning of treatment and at periodic intervals thereafter determined by the treating physician. Serum IGF-I and IGF BP-I levels are determined by immunoassay on these blood specimens. There are a variety of immunoassay methods available for determination of IGF-I and IGF BP-I which are reported in the literature and which are known to those of skill in the art. (Breier, B.H., et al., J. of Endocrinol., 1991, 128:347-357 and Pekonen, F. et al. J. Immunoassay, 1989, 10:325-337.
# as §2
# (§6) Insulin-like growth factor I and insulin-like growth factor binding protein I were measured in serum specimens by immunoassay as described previously.
# [3] = Sense of well-being or mood-elevating effect (question to subjects); details: DHEA 50 mg, 3 months
# Description: as §2
# Sense of well-being or mood-elevating effect was reported in response to a question: "Have you noted any effect, good or bad during this treatment?
# (§7) Libido was self-reported by the patients and scored on a visual analog scale. Subjects were evaluated at the end at the 3 month period of DHEA or placebo treatment.
# [4] = Pharmacokinetic study comparing oral and sublingual administration of DHEA; details: for Tmax: human, serum, read-out: time to peak levels of DHEA
# Description: FIG. 5: Hormonal levels in men and women after oral 50 mg DHEA (.cndot. and sublingual 50 mg. DHEA (.smallcircle. ).
# A pharmacokinetic study comparing oral and sublingual administration of DHEA was performed on the men and women subjects. DHEA, DHEAS, androstenedione, testosterone and dihydrotestosterone were measured by the immunoassay methods described above on serum specimens drawn at 30 minutes, 1 hour, 2 hours, 4 hours, 5 hours and 8 hours after dose administration. […] Peak levels of DHEA were achieved within 30 minutes with the sublingual route and 3 hours with the oral route.
# [5] = Glucose metabolism (euglycemic hyperinsulinemic clamp, rapid intravenous glucose tolerance test); details: DHEA 50 mg orally, nightly, 3 months, mean ± standard error
# Description: as §2
# (§8) Insulin sensitivity and glucose effectiveness were measured by euglycemic hyperinsulinemic clamp (Bergman, R.N. J. Clin. Invest., 1987, 79:790-800) and rapid intravenous glucose tolerance test (Bergman, R.N., et al. Amer. J. Physiol., 1979, 236:667-677) and % body fat as measured by bioelectric impedance (Lukaski, H. Amer. J. Nutrition, 1987, 46:537) were measured on all patients after DHEA of placebo treatment. The glucose disposal rate was also measured using Bergman, 1987 (supra).
# [6] = Serum DHEA and DHEAS levels during oral DHEA (immunoassay)
# Description: FIG. 1: DHEAS and DHEA serum levels in men and women at baseline, 2 and 12 weeks of DHEA (50 mg) administration and 2 weeks after discontinuation. The horizontal solid line represents mean level during the second decade of life.
# as §2, §3, §4
# [7] = Body composition (% body fat by bioelectric impedance, BMI); details: DHEA 50 mg orally, nightly, 3 months, mean ± standard error
# Description: The term "BMI" means body mass index which is body weight (kg)/height (m^2).
# as §2, §8
# [8] = tested on: insulin-like growth factor I (IGF-I); assay: Serum insulin-like growth factor I (immunoassay); details: DHEA 50 mg, 3 months
# Description: as §5, §2, §6
# [9] = Serum apolipoproteins (immunoassay); details: DHEA (50 mg) × 3 months, mean ± standard error
# Description: as §2
# (§9) Serum cholesterol, triglycerides, apolipoproteins A1 and B, and the HDL and LDL lipoproteins were measured on all serum specimens. Cholesterol, triglycerides, HDL and LDL were measured by standard enzymatic methods. (Allain, C.A., et al., Clin. Chem. 1974, 20:470.) Apolipoproteins were measured by immunoassay methods. Immunoassay methods for measurement of apolipoproteins are described in the literature. […] All other lipid or lipoprotein levels were unchanged by the DHEA administration.
# [10] = Side effects and safety parameters (physical exams, hematology, chemistry) in clinical trial; details: 17 women and 13 men ages 40-70; 50 mg orally, nightly, 3 months
# Description: as §2
# [11] = Self-reported libido (visual analog scale); details: end of 3 month DHEA period
# Description: as §2, §7
# [12] = tested on: sex-hormone binding globulin; assay: Serum sex-hormone binding globulin during oral DHEA (immunoassay); details: 50 mg DHEA orally, nightly
# Description: as §1, §2, §3, §4
# [13] = Serum cholesterol, triglycerides, HDL and LDL (standard enzymatic methods); details: for CHOLESTEROL / HDL / LDL / TG: DHEA (50 mg) × 3 months, mean ± standard error
# Description: as §2, §9
structure (smiles),measurement,setting,value
"C[C@]12CC[C@H](O)CC1=CC[C@@H]1[C@@H]2CC[C@]2(C)C(=O)CC[C@@H]12 [DHEA, dehydroepiandrosterone]","androgens, particularly dihydrotestosterone and estrogens",[1]; men,no changes in any androgens
same,"androgen levels (testosterone, androstenedione, dihydrotestosterone)",[1]; women,doubling of their androgen levels
same,"IGF BP-I (change, in words)",[2]; men and women,decrease
same,IGF BP-I decrease,[2]; men,12%
same,IGF BP-I decrease,[2]; women,22%
same,mood-elevating effect,"[3]; majority of both men and women, in retrospect",An impressive mood-elevating effect was noted in retrospect by the majority of both men and women
same,responses to question on effect noted during treatment,[3]; men and women,"""sleeping better"" ""better ability to handle stress"" ""more relaxed"", ""easier time falling asleep"", ""more energy"" and ""better moods"""
same,"rate of absorption, sublingual versus oral","[4]; 50 mg, men and women",absorbed most rapidly sublingually
same,Tmax,[4]; oral 50 mg,≤ 3 h
same,Tmax,[4]; sublingual 50 mg,≤ 0.5 h
same,GLUCOSE DISPOSAL RATE,[5]; men,7.64 ± 0.056 mg/kg/min
same,GLUCOSE EFFECTIVENESS,[5]; men,0.019 ± 0.001 min⁻¹
same,INSULIN SENSITIVITY,[5]; men,3.69 ± 0.5 × 10^-4 min^-1 uU^-1 ml
same,GLUCOSE EFFECTIVENESS,[5]; women,0.024 ± 0.002 min⁻¹
same,INSULIN SENSITIVITY,[5]; women,2.90 ± 0.4 × 10^-4 min^-1 uU^-1 ml
same,blood levels of DHEA,"[6]; adults 40-80 years old, 50 to 100 mg orally or sublingually daily, FIG. 1",in the physiological range for younger adults
same,DHEAS serum levels (maintenance),"[6]; men and women, 50 mg DHEA orally, nightly, three month trial",maintained throughout the three month trial
same,DHEAS serum levels (rise),"[6]; men and women, 50 mg DHEA orally, nightly, within 2 weeks of administration",rose to those levels seen in the second decade of life within 2 weeks of administration
same,time for DHEAS levels to return to baseline after discontinuing DHEA,"[6]; men and women, after discontinuing 50 mg DHEA",≤ 2 weeks
same,% FAT,[7]; men,21.9 ± 1.3%
same,BMI,[7]; men,27.0 ± 0.7 kg/m^2
same,% FAT,[7]; women,31.3 ± 1.0%
same,BMI,[7]; women,24.7 ± 0.7 kg/m^2
same,"IGF-I (change, in words)",[8]; men and women,statistically significant elevation
same,"free IGF-I (change, in words)","[8]; men and women, inferred from IGF-I and IGF BP-I",overall increase in free IGF-I
same,IGF-I increase,[8]; men,10%
same,IGF-I increase,[8]; women,12%
same,APO A1,[9]; men,167.4 ± 6.1
same,APO B,[9]; men,149.8 ± 8.5
same,APO A1,[9]; women,213.7 ± 8.1
same,APO B,[9]; women,137.4 ± 5.9
same,"Safety parameters (physical exams, hematology, chemistry)",[10],all within normal limits
same,side effects,[10],No side effects were reported
same,self-reported libido,[11],no difference was seen while subjects were on DHEA
same,Sex-hormone binding globulin level,[12],a trend of decline but this decline was not statistically significant
same,CHOLESTEROL,[13]; men,209.9 ± 9.4
same,HDL,[13]; men,44.8 ± 1.7
same,LDL,[13]; men,147.5 ± 8.5
same,TG,[13]; men,107.7 ± 10.5
same,"all other lipid or lipoprotein levels (change, in words)","[13]; women and men, DHEA 50 mg, 3 months",unchanged
same,"HDL levels (change, in words)","[13]; women, DHEA 50 mg, 3 months",Only a small reduction in HDL levels were seen in women
same,CHOLESTEROL,[13]; women,218.3 ± 6.9
same,HDL,[13]; women,63.4 ± 2.7
same,LDL,[13]; women,136.0 ± 4.9
same,TG,[13]; women,94.2 ± 7.4
